Experimental data as given in US20260355318A1, “MOLECULAR MACHINES FOR TREATMENT OF CANCER, FUNGAL INFECTIONS, OR BACTERIAL INFECTIONS” (priority 2022, published 2026).

Tests used:
[1] = tested on: C. albicans; assay: Development of resistance / cross-resistance in C. albicans (serial passage, single-step); format: cell-based; conditions: Candida albicans, read-out: MIC of MM in antifungal-resistant C. albicans
Method: FIG. 3: Evaluation of the development of resistance to MMs in C. albicans. For the stepwise resistance assessment by serial passage (left), C. albicans cell suspensions were treated with increasing concentrations (0.3125-160 μM) of different MMs (8 mM stock in DMSO) and then irradiated with […] light (87.6 J cm^−2). The irradiated cell suspensions were then inoculated in MOPS-buffered RPMI 1640 (pH 7.0, Sigma, MO, USA), and the tubes were incubated at 30 ° C for 48 h. […] Cells able to grow at 0.5×MIC of each MM were collected by centrifugation (5,000×g, 5 min), resuspended and re-challenged with a range of MM concentrations and irradiated with 405 nm light (87.6 J cm^−2). The procedure was repeated for a total of 20 consecutive cycles. […] Irradiated cells were then inoculated in YPD and incubated at 30 °C. However, MM-resistant colonies could not be recovered even after 14 days of incubation. Created with Biorender.com.
A modified version of the broth microdilution serial passage method was used to assess the development of resistance to visible-light-activated MMs in C. albicans (Kapoor et al., 2019). C. albicans cell suspensions were prepared and irradiated as previously described for the determination of MM MIC. Cells were then inoculated into buffered RPMI 1640 and incubated at 30 ° C for 48 h. Cells able to grow at 0.5×MIC of MM were centrifuged (5,000×g, 5 min), resuspended, rechallenged with different MM concentrations, and irradiated with 405-nm light (87.6 J cm^−2). The procedure was repeated for 20 consecutive cycles. The antifungals AMB, CAS, and FLC were processed similarly, except that light was omitted, and used as controls.

[2] = tested on: E. coli; assay: Electron microscopy (TEM, SEM) of E. coli; format: cell-based, Escherichia coli; conditions: 0.5×MIC, 43.8 J cm^−2
Method: E. coli was cultured to mid-log phase in MHB media. Cells were collected and resuspended in PBS (1×) to an OD600 of ≈0.05. […] Cells were then irradiated for 5 min at 146 mW cm-2 (43.8 J cm^−2) after which cells were fixed with Karnovsky's fixative (Carlson et al., 2003), and post-fixed with 1% osmium, and dehydrated with a series of ethanol washes. For TEM, samples were embedded in epoxy resin (PolyBed 812; Polyscienses, Inc., Warrington, PA, United States) after dehydration in a graduated 50-100% ethanol concentration series of washes. Ultrathin sections (65 nm) were cut using a Leica EM UC7 ultramicrotome (Leica Microsystems, Wetzlar, Germany) and post-stained with uranyl acetate and lead citrate. Specimens were observed using a JEOL JEM2100 TEM ([…], Japan) operating at an accelerating voltage of 80 kV. For SEM, following ethanol dehydration samples were critical point dried using a Leica EM CPD300 (Leica Microsystems, Wetzlar, Germany), sputter-coated with 10 nm of gold, and imaged with an FEI Apreo SEM (FEI Apreo, ThermoFisher Scientific, Waltham, MA) using a secondary electron detector.

[3] = tested on: S. aureus; assay: Time-kill / light-dose experiments, S. aureus; format: cell-based, Staphylococcus aureus; conditions: 0.625 to 5 μM of MM, 405 nm
Method: Serial dilutions of irradiated cell suspensions were prepared in PBS. A volume of 10 AL of the appropriate serial dilutions was spot-plated onto LB agar plates. Following overnight incubation at 30 or 37 ° C, depending on the strain, bacterial viability was assessed as colony forming units (CFU) per mL. Results were expressed as log (N/NO) whereby N is the CFU mL^−1 at each irradiation time point and NO is the initial CFU mL^−1 of the corresponding sample. Only dilutions that yielded 10-100 colonies were counted.

[4] = tested on: normal human dermal fibroblasts (NHDFs); assay: Toxicity to NHDF (CellTiter-Glo); format: cell-based; conditions: 5 min, 405 nm light 146 mW cm^−2, 5 min, read-out: IC50 (NHDF viability)
Method: Biocompatibility of MM with primary NHDF and HEK293T cells was assessed using the CellTiter-Glo® Luminescent Cell Viability Assay (Promega), per the manufacturer's instructions. The MM concentrations that reduced cell viability by 50% (IC50) were identified and the therapeutic index was calculated as the ratio between the IC50 and the MIC at a light intensity of 146 mW cm^−2.

[5] = tested on: E. coli; assay: Antibacterial activity of pre-irradiated MM 1; format: cell-based, Escherichia coli; conditions: pre-irradiation 25 min
Method: Influence of MM pre-irradiation on the inactivation of E. coli. Top: (1) To test the influence of pre-irradiating MMs on their antibacterial effects, MM 1 was added to a Petri dish containing PBS (final concentration of 8 μM) and irradiated for 25 min at 146 mW cm^−2 with 405 nm light. Cells were then added to an OD of ≈0.02, incubated in the dark for 30 min and then irradiated for up to 10 min at 146 mW cm^−2 with 405 nm light; (2) Independently, MM 1 was added to a Petri dish containing PBS (final concentration of […]), cells were then added to an OD600 of ≈0.02, incubated in the dark for 30 min and then irradiated for up to 10 min at 146 mW cm^−2 with 405 nm light. Bottom: Time-dependent reduction in colony-forming units (expressed as the logarithm of the ratio between the cell number at every time point and the cell number at time zero) of cells treated with pre-irradiated MM 1 or non-irradiated MM 1.

How did the MIC [1] turn out when `C[C@@H]1Cc2ccc3ccccc3c2/C1=C1\c2ccccc2Sc2cc(NCCN)ccc21` (racemic) [MM 6, N^1-(9-(2-methyl-2,3-dihydro-1H-cyclopenta[a]naphthalen-1-ylidene)-9H-thioxanthen-3-yl)ethane-1,2-diamine] was run?
The MIC was 2.5 µM.

What about the “cell morphology (TEM)” value [2] of the same compound?
Its value is “substantial changes in cell morphology”.

And the “light dose for complete eradication” value [3]?
The value was 16 J cm^−2.

What about the IC50 [4] of the same compound?
Its IC50 is 10 µM.

What does the source list for `C[C@@H]1Cc2ccc3ccccc3c2/C1=C1\c2ccccc2Sc2cc(NCCN(C)C)ccc21` [MM 1, N^1N^1-dimethyl-N^2-(9-(2-methyl-2,3-dihydro-1H-cyclopenta[a]naphthalen-1-ylidene)-9H-thioxanthen-3-yl) ethane-1,2-diamine]?
MIC [1]: 1.25 µM; cell morphology (TEM) [2]: substantial changes in cell morphology; light dose for complete eradication [3]: 16 J cm^−2; antibacterial activity after pre-irradiation [5]: does not lead to loss of MM antibacterial activity; IC50 [4]: 5 µM
